Like-named read-outs stand apart in the source and are kept apart here.
Legend:
MCF7 = assay: Sulforhodamine B (SRB) growth inhibition assay; format: cell-based, Human; settings: for ratio vs flox (GI50) MCF7: GI50 of conjugate vs floxuridine; for GI50: SRB assay
Description: (§1) In Vitro Screening of PEG-Gemcitabine Monophosphate in Selected Human Cancer Cell Lines
(§2) The aim was to determine the GI50 values for PEG-floxuridine conjugates against a panel of cell lines, and based on previous data from Xenograft studies. […] The test articles were solubilized in dimethylsulfoxide and were tested at four different molar (M) concentrations; 10^−4, 10^−5, 10^−6, M. GI50 (the concentration needed to reduce the growth of treated cells to half that of untreated control cells) was calculated for each condition ([(Ti−Tz)/(C-Tz)]×100=50, where Ti, Tz, and C refer to absorbance values obtained from each tested concentration, time zero, and control treatment, respectively).
as §2, with “The objective” for “The aim”, “the IC50” for “the GI50”, “for PEG-gemcitabine” for “for PEG-floxuridine”, “in dimethyl sulfoxide” for “in dimethylsulfoxide”, “10^−6, 10^−7” for “10^−6,”, “condition ([(Ti−Tz)/(C−Tz)]×100=50,” for “condition ([(Ti−Tz)/(C-Tz)]×100=50,”

Hop62 = assay: Sulforhodamine B (SRB) growth inhibition assay; format: cell-based, Human; settings: for ratio vs flox (GI50) Hop62: GI50 of conjugate vs floxuridine; for GI50: cells exposed for 24 h, read-out: GI50 values (μM) Hop62
Description: as §1, §2
as §2, with “The objective” for “The aim”, “the IC50” for “the GI50”, “for PEG-gemcitabine” for “for PEG-floxuridine”, “in dimethyl sulfoxide” for “in dimethylsulfoxide”, “10^−6, 10^−7” for “10^−6,”, “condition ([(Ti−Tz)/(C−Tz)]×100=50,” for “condition ([(Ti−Tz)/(C-Tz)]×100=50,”

HT29 = assay: Sulforhodamine B (SRB) growth inhibition assay; format: cell-based, Human; settings: for ratio vs flox (GI50) HT29: GI50 of conjugate vs floxuridine; for GI50: cells exposed for 24 h, read-out: GI50 values (μM) HT29
Description: as §1, §2
as §2, with “The objective” for “The aim”, “the IC50” for “the GI50”, “for PEG-gemcitabine” for “for PEG-floxuridine”, “in dimethyl sulfoxide” for “in dimethylsulfoxide”, “10^−6, 10^−7” for “10^−6,”, “condition ([(Ti−Tz)/(C−Tz)]×100=50,” for “condition ([(Ti−Tz)/(C-Tz)]×100=50,”

A2780 = assay: Sulforhodamine B (SRB) growth inhibition assay; format: cell-based, Human; settings: for ratio vs flox (GI50) A2780: GI50 of conjugate vs floxuridine; for GI50: SRB assay, cells exposed for 24 h, read-out: GI50 values (μM) A2780
Description: as §1, §2
as §2, with “The objective” for “The aim”, “the IC50” for “the GI50”, “for PEG-gemcitabine” for “for PEG-floxuridine”, “in dimethyl sulfoxide” for “in dimethylsulfoxide”, “10^−6, 10^−7” for “10^−6,”, “condition ([(Ti−Tz)/(C−Tz)]×100=50,” for “condition ([(Ti−Tz)/(C-Tz)]×100=50,”

DU145 = assay: Sulforhodamine B (SRB) growth inhibition assay; format: cell-based, Human; settings: for ratio vs flox (GI50) DU145: GI50 of conjugate vs floxuridine; for GI50: cells exposed for 24 h, read-out: GI50 values (μM) DU145
Description: as §2
as §2, with “The objective” for “The aim”, “the IC50” for “the GI50”, “for PEG-gemcitabine” for “for PEG-floxuridine”, “in dimethyl sulfoxide” for “in dimethylsulfoxide”, “10^−6, 10^−7” for “10^−6,”, “condition ([(Ti−Tz)/(C−Tz)]×100=50,” for “condition ([(Ti−Tz)/(C-Tz)]×100=50,”

MDCK cells [1] = test system: MDCK cells
Description: (§6) Bi-Directional Permeability of PEG-Floxuridine Conjugates in Caco-2 and MDCK Cells

COLO205 = assay: Sulforhodamine B (SRB) growth inhibition assay; format: cell-based, Human; settings: COLO205; SRB assay, cells exposed for 24 h; read-out: GI50 values (μM) COLO205
Description: as §1, §2
as §2, with “The objective” for “The aim”, “the IC50” for “the GI50”, “for PEG-gemcitabine” for “for PEG-floxuridine”, “in dimethyl sulfoxide” for “in dimethylsulfoxide”, “10^−6, 10^−7” for “10^−6,”, “condition ([(Ti−Tz)/(C−Tz)]×100=50,” for “condition ([(Ti−Tz)/(C-Tz)]×100=50,”

HCT15 = assay: Sulforhodamine B (SRB) growth inhibition assay; format: cell-based, Human; settings: SRB assay, cells exposed for 24 h, read-out: GI50 values (μM) HCT15
Description: as §1, §2
as §2, with “The objective” for “The aim”, “the IC50” for “the GI50”, “for PEG-gemcitabine” for “for PEG-floxuridine”, “in dimethyl sulfoxide” for “in dimethylsulfoxide”, “10^−6, 10^−7” for “10^−6,”, “condition ([(Ti−Tz)/(C−Tz)]×100=50,” for “condition ([(Ti−Tz)/(C-Tz)]×100=50,”

NCI/ADR-RES = assay: Sulforhodamine B (SRB) growth inhibition assay; format: cell-based, Human; settings: cells exposed for 24 h, read-out: GI50 values (μM) NCI/ADR-RES
Description: as §1
(§3) The aim was to determine the GI50 values for PEG-floxuridine conjugates against a panel of cell lines, and based on previous data from Xenograft studies. The cells were exposed for 24 h, and cell viability assessed by using the Sulphorhodamine (SRB) assay. The test articles were solubilized in dimethylsulfoxide and were tested at four different molar (M) concentrations; 10^−4, 10^−5, 10^−6, M. GI50 (the concentration needed to reduce the growth of treated cells to half that of untreated control cells) was calculated for each condition ([(Ti−Tz)/(C-Tz)]×100=50, where Ti, Tz, and C refer to absorbance values obtained from each tested concentration, time zero, and control treatment, respectively).
as §3, with “The objective” for “The aim”, “the IC50” for “the GI50”, “for PEG-gemcitabine” for “for PEG-floxuridine”, “in dimethyl sulfoxide” for “in dimethylsulfoxide”, “10^−6, 10^−7” for “10^−6,”, “condition ([(Ti−Tz)/(C−Tz)]×100=50,” for “condition ([(Ti−Tz)/(C-Tz)]×100=50,”

MIA PaCa-2 = assay: In vitro cytotoxicity assay (CellTiter-Glo); format: cell-based; settings: for IC50: 72 h exposure, CellTiter-Glo
Description: (§4) The objective of these studies were to determine the IC50 values for PEG-floxuridine conjugates against floxuridine-resistant cell lines based on data from previous Xenograft studies. The cells were exposed for 72 h, and cell viability assessed by using the CellTiter-Glo assay.
(§5) The objective of these studies was to determine the IC50 values for PEG-gemcitabine conjugates against gemcitabine-resistant cell lines based on data from previous Xenograft studies. The cells were exposed for 72 h, and cell viability assessed by using the CellTiter-Glo assay.

HCT-116 = assay: In vitro cytotoxicity assay (CellTiter-Glo); format: cell-based; settings: for IC50: 72 h exposure, CellTiter-Glo
Description: as §4, §5

HT-29 = assay: In vitro cytotoxicity assay (CellTiter-Glo); format: cell-based; settings: for IC50: 72 h exposure, CellTiter-Glo
Description: as §4, §5

CAKI-1 = assay: In vitro cytotoxicity assay (CellTiter-Glo); format: cell-based; settings: for IC50: 72 h exposure, CellTiter-Glo
Caco-2 cells [2] = test system: Caco-2 cells
Description: as §6

Caco-2 cells [3] = assay: Bi-directional permeability in Caco-2 cells
Description: as §6

MDCK cells [4] = assay: Bi-directional permeability in MDCK cells
Description: as §6

[5] = Bi-directional permeability in Caco-2 cells; settings: human
Description: as §6

in vitro [6] = settings: dog, MDCK
Description: as §6

[7] = Stability in cell culture medium (floxuridine release, HPLC); format: in vitro ADME
Description: The frozen samples were thawed and homogenized by vortex mixing. A 10 μl aliquot of the sample was transferred into a clean EPPENDORF tube. Samples were diluted with 190 μl methanol: water mixture (1:1, v/v). The tubes were vortex mixed and centrifuged for 10 min. The supernatant was transferred to HPLC vials and 10 μl volume of the sample was injected onto the HPLC system.

[8] = Bi-directional permeability in MDCK cells; settings: dog
Description: as §6

in vitro [9] = settings: human, Caco-2
Description: as §6

[10] = cells exposed for 24 h, read-out: GI50 values (μM) MCF7

## COCCOCCOCCOCCOCCOCCOCCOP(=O)(OCCOCCOCCOCCOCCOCCOCCOC)OC[C@H]1O[C@@H](n2cc(F)c(=O)[nH]c2=O)C[C@@H]1O [Floxuridine Di (mPEG7), 5′-floxuridine di-methoxy hepta(ethylene glycol) phosphate]
MCF7
  ratio vs flox (GI50) MCF7: 667
MCF7; [10]
  GI50: > 100 µM
Hop62
  ratio vs flox (GI50) Hop62: 417
Hop62; SRB assay
  GI50: > 100 µM
HT29
  ratio vs flox (GI50) HT29: 4
HT29; SRB assay
  GI50: > 100 µM
A2780
  ratio vs flox (GI50) A2780: 1538
  GI50: > 100 µM
DU145
  ratio vs flox (GI50) DU145: 4
DU145; SRB assay
  GI50: > 100 µM

## COCCOCCOCCOP(=O)(O)OC[C@H]1O[C@@H](n2cc(F)c(=O)[nH]c2=O)C[C@@H]1O [Floxuridine Mono (mPEG3), 5′-floxuridine methoxy tri(ethylene glycol) phosphate]
MDCK cells [1]
  Papp A -> B: <0.06 10^−6 cm/s
  Papp B -> A: <0.07 10^−6 cm/s
  Significant efflux: No
  percent recovery A -> B: 98%
  percent recovery B -> A: 98%
MCF7
  ratio vs flox (GI50) MCF7: 0.7
MCF7; [10]
  GI50: 0.11 µM
Hop62
  ratio vs flox (GI50) Hop62: 417
Hop62; SRB assay
  GI50: > 100 µM
COLO205
  GI50: 1.8 µM
HT29
  ratio vs flox (GI50) HT29: 4
HT29; SRB assay
  GI50: > 100 µM
A2780
  ratio vs flox (GI50) A2780: 32
  GI50: 2.1 µM
HCT15
  GI50: 32 µM
DU145
  ratio vs flox (GI50) DU145: 0.005
DU145; SRB assay
  GI50: 0.12 µM
NCI/ADR-RES
  GI50: < 0.1 µM
MIA PaCa-2
  Ratio vs floxuridine (IC50) MIA PaCa-2: 1
  IC50: 64 nM
HCT-116
  Ratio vs floxuridine (IC50) HCT-116: 2
  IC50: 56 nM
HT-29
  Ratio vs floxuridine (IC50) HT-29: 1
  IC50: 87 nM
CAKI-1
  Ratio vs floxuridine (IC50) CAKI-1: 1
  IC50: 145 nM
Caco-2 cells [2]
  Papp A -> B: <0.19 10^−6 cm/s
  Papp B -> A: <0.25 10^−6 cm/s
  Significant efflux: No
  percent recovery A -> B: 96%
  percent recovery B -> A: 94%

## COCCOCCOCCOCCOCCOCCOCCOP(=O)(O)OC[C@H]1O[C@@H](n2cc(F)c(=O)[nH]c2=O)C[C@@H]1O [Floxuridine Mono (mPEG7), 5′-floxuridine methoxy hepta(ethylene glycol) phosphate]
MCF7
  ratio vs flox (GI50) MCF7: 0.9
MCF7; 48 h drug exposure, read-out: GI50 in MCF7
  GI50: 2.2 µM
MCF7; [10]
  GI50: 0.13 µM
Hop62
  ratio vs flox (GI50) Hop62: 417
Hop62; SRB assay
  GI50: > 100 µM
COLO205
  GI50: 1.9 µM
HT29
  ratio vs flox (GI50) HT29: 4
HT29; SRB assay
  GI50: > 100 µM
A2780
  ratio vs flox (GI50) A2780: 35
  GI50: 2.3 µM
HCT15
  GI50: ~32 µM
Caco-2 cells [3]
  Papp A -> B: 0.14 10^−6 cm/s
  Papp B -> A: 0.06 10^−6 cm/s
  Papp B-A/Papp A-B: 0.4
  Significant efflux: No
  percent recovery A -> B: 79%
  percent recovery B -> A: 89%
DU145
  ratio vs flox (GI50) DU145: 0.005
DU145; SRB assay
  GI50: 0.13 µM
NCI/ADR-RES
  GI50: < 0.1 µM
MIA PaCa-2
  Ratio vs floxuridine (IC50) MIA PaCa-2: 2
  IC50: 96 nM
HCT-116
  Ratio vs floxuridine (IC50) HCT-116: 2
  IC50: 48 nM
HT-29
  Ratio vs floxuridine (IC50) HT-29: 1
  IC50: 76 nM
CAKI-1
  Ratio vs floxuridine (IC50) CAKI-1: 1
  IC50: 157 nM
MDCK cells [4]
  Papp A -> B: <0.06 10^−6 cm/s
  Papp B -> A: <0.08 10^−6 cm/s
  Significant efflux: No
  percent recovery A -> B: 100%
  percent recovery B -> A: 90%

## O=c1[nH]c(=O)n([C@H]2C[C@H](O)[C@@H](CO)O2)cc1F [Floxuridine, reference compound]
MDCK cells [1]
  Significant efflux: No
  permeability through MDCK monolayers (in words): poor permeability
MCF7; Homo sapiens, cells exposed for 24 h, read-out: GI50 values (μM) MCF7
  GI50: 0.15 µM
Hop62; Homo sapiens, HOP-62, SRB assay
  GI50: 0.24 µM
HT29; Homo sapiens, HT-29, SRB assay
  GI50: 25 µM
A2780; Homo sapiens
  GI50: 0.065 µM
[5]; Caco-2, percent recovery A -> B
  recovery: 75%
[5]; Caco-2, percent recovery B -> A
  recovery: 91%
In vitro [6]
  Papp A→B: < 2.46 ×10⁻⁶ cm/s
  Papp B→A: < 2.7 ×10⁻⁶ cm/s
[7]; HPLC, supernatant of MCF-7 culture after 48 h with test article
  Peak Area of measured floxuridine: 119819
[7]; after cells were treated with test article
  concentration of floxuridine estimated in culture medium: 24.44
[7]; diluted sample (10 μL diluted to 200 μL), MCF-7 culture supernatant, 48 h
  Calculated Concentration (μg/mL) of floxuridine: 1.211 µg/mL
[7]; floxuridine in MCF-7 culture supernatant, 48 h, nominal 24.6 μg/mL
  Total Calculated Concentration in the sample using dilution factor: 24.22
DU145; Homo sapiens, DU-145, SRB assay
  GI50: 26 µM
MIA PaCa-2; Homo sapiens
  IC50: 54 nM
HCT-116; Homo sapiens
  IC50: 32 nM
HT-29; Homo sapiens
  IC50: 90 nM
CAKI-1; Homo sapiens
  IC50: 110 nM
[8]; percent recovery A -> B
  recovery: 50%
[8]; percent recovery B -> A
  recovery: 82%
Caco-2 cells [2]
  Significant efflux: No
  permeability across Caco-2 monolayers (in words): poor permeability
In vitro [9]
  Papp A→B: 0.75 ×10⁻⁶ cm/s
  Papp B→A: 1.47 ×10⁻⁶ cm/s
  efflux ratio: 2

Source: US9365604B2, “Oligomer-nucleoside phosphate conjugates” (NEKTAR THERAPEUTICS, priority 2007, dated 2016)
